Measured values published in US10059655B2, “Lipids and lipid compositions for the delivery of active agents” (priority 2013, dated 2018).

Key:
Type in all cases: physicochemical
[1] = Particle size of the lipid nanoparticle (Z-average, dynamic light scattering, Malvern Zetasizer); details: for Size 1st IM / Size 2nd IM: RSV-F replicon RNA LNP, DLS; for Size 1st IM: 1st immunization; for Size 2nd IM: 2nd immunization
Text: The lipid nanoparticles have a size of about 1 to about 2,500 nm, about 10 to about 1,500 nm, about 20 to about 1,000 nm, in a sub-embodiment about 50 to about 600 nm, in a sub-embodiment about 50 to about 400 nm, in a sub-embodiment about 50 to about 250 nm, and in a sub-embodiment about 50 to about 150 nm. Unless indicated otherwise, all sizes referred to herein are the average sizes (diameters) of the fully formed nanoparticle, as measured by dynamic light scattering on a Malvern Zetasizer. The nanoparticle sample is diluted in phosphate buffered saline (PBS) so that the count rate is approximately 200-400 kcts. The data is presented as a weighted average of the intensity measure.
Unless indicated otherwise, all particle size measurements referred to in Table 3 are the Z-average particle size of the fully formed nanoparticle, as measured by dynamic light scattering on a Malvern Zetasizer. The nanoparticle sample was diluted in phosphate buffered saline (PBS) so that the count rate is approximately 200-400 kcts.
(§1) % entrapment (% E), Concentration of RNA (Conc), particle size measured by DLS, and polydispersity reported by DLS of LNPs prepared with different cationic lipids

[2] = Measurement of plasmid DNA encapsulation in lipid nanoparticles (Quant-iT Ribogreen)
Method: All equipment and disposable supplies are certified free of RNase activity by the manufacturer or rendered RNase free by use of the RNaseZap reagent (LifeTechnologies). Plasmid is encapsulated at a cationic lipid amine to DNA phosphate (N:P) molar ratio of 4:1. Lipids (cationic lipid, DSPC, cholesterol and lipidated PEG) are dissolved in ethanol. The molar ratios are 40:10:38:2, respectively. The mixture is sonicated briefly, then gently agitated for 5 minutes and then maintained at 37° C. until use. Plasmid is exchanged into citrate buffer pH 6.0 by use of Amicon Ultra-15 centrifugal concentrators, and the final concentration is adjusted to 0.053 mg/ml and held at 37° C. until use. An equal volume of lipids in ethanol, plasmid in citrate buffer, and citrate buffer alone are drawn into disposable syringes. Tubing leading from syringes containing lipids and DNA are attached to the T junction, and tubing leading from the syringe containing citrate buffer alone is paired with the tubing exiting the T-junction over a collection vessel containing a stir bar on an active stir plate. Syringes are placed in a syringe pump set to expel contents at a flow rate of 1 ml per minute. The pump is activated, and the collected DNA in lipid nanoparticles is transferred to SnakeSkin dialysis tubing (10,000 MWCO, Thermo Scientific). Material is dialyzed against RNAse- and pyrogen-free 1× phosphate buffered saline overnight at 4° C.
Percent encapsulation of plasmid DNA in lipid nanoparticles is determined using the Quant-iT Ribogreen RNA Assay kit (Life Technologies). The LNP-DNA suspension is assayed in buffer (DNA outside the particle), and buffer plus Triton X-100 detergent (total DNA). The difference calculated is the DNA inside the particle. Prepare a 1000 ng/mL stock using unpackaged plasmid and use this to generate a standard curve (0 ng/ml, 15.63-1000 ng/ml) in TE and TE+0.75% Triton X-100. Prepare LNP-plasmid samples in TE buffer and TE buffer+0.75% Triton X-100 with appropriate dilution so that reading is in the range of standard curve (25 fold). In a 384-well plate (Costar non-treated #3573) add 0.04 ml of standard (in duplicate) or sample (in triplicate) per well. Dilute Ribogreen reagent 240-fold in TE buffer and add 0.06 ml per well. Mix contents of wells and measure fluorescence (excitation=480 nm, emission=520 nm). Subtract background values (no DNA) from standard and test sample values and determine the concentrations of DNA in the samples using the standard curves. Determine the percent encapsulation of the sample by dividing the difference in concentrations between sample+triton and sample in buffer alone by the sample+triton concentration.

[3] = Polydispersity index (PDI) by dynamic light scattering; details: for PDI 1st IM / PDI 2nd IM: RSV-F replicon RNA LNP, DLS; for PDI 1st IM: 1st immunization; for PDI 2nd IM: 2nd immunization
Method: Unless indicated otherwise, all PDIs referred to herein are the PDI of the fully formed nanoparticle, as measured by dynamic light scattering on a Malvern Zetasizer. The nanoparticle sample was diluted in phosphate buffered saline (PBS) so that the count rate was approximately 200-400 kcts. The data is presented in Table 3 as a weighted average of the intensity measure.
as §1

Compound | Size ([1]; FLuc mRNA) | Size ([1]; FVII siRNA) | Size ([1]; Gluc mRNA) | Size ([1]; hFIX mRNA) | Size ([1]; hLep plasmid) | Size ([1]; hLeptin mRNA) | Size ([1]; mEPO mRNA) | Size ([1]; pDNA) | % Encap. ([2]; hLep plasmid) | % Encap. ([2]; pDNA) | PDI ([3]; FLuc mRNA) | PDI ([3]; FVII siRNA) | PDI ([3]; Gluc mRNA) | PDI ([3]; hFIX mRNA) | PDI ([3]; hLep plasmid) | PDI ([3]; hLeptin mRNA) | PDI ([3]; mEPO mRNA) | PDI ([3]; pDNA) | Size 1st IM [1] | Size 2nd IM [1] | further results
CCCCC/C=C\C/C=C\CCCCCCCC(=O)OCC(COC(=O)CCC(OCCCCCCCC)OCCCCCCCC)COC(=O)OCCCN(CC)CC (stereo not drawn) [Example 13, (9Z,12Z)-3-((4,4-bis(octyloxy)butanoyl)oxy)-2-((((3-(diethylamino)propoxy)carbonyl)oxy)methyl)propyl octadeca-9,12-dienoate] | 121.9 nm | 101.5 nm | 90.8 nm | 122.4 nm | 121.5 nm | 127.6 nm | 113.7 nm | 95.12 nm | 95.9% | 98.2% | 0.140 | 0.037 | 0.099 | 0.154 | 0.158 | 0.093 | 0.129 | 0.160 |  |  | 
CCCCC/C=C\C/C=C\CCCCCCCC(=O)OCC(COC(=O)CCC(OCCCCCCCC)OCCCCCCCC)COC(=O)OCC1CCCN(CC)C1 (stereo not drawn) [Example 15, (9Z,12Z)-3-((4,4-bis(octyloxy)butanoyl)oxy)-2-(((((1-ethylpiperidin-3-yl)methoxy)carbonyl)oxy)methyl)propyl octadeca-9,12-dienoate] | 100.7 nm |  | 84.7 nm | 96.8 nm | 94.5 nm | 119.8 nm | 90.1 nm | 86.9 nm | 93.6% | 93.2% | 0.132 |  | 0.133 | 0.182 | 0.149 | 0.125 | 0.125 | 0.110 | 144.7 nm | 139.4 nm | PDI 1st IM [3]: 0.121; PDI 2nd IM [3]: 0.097
CCCCC/C=C\C/C=C\CCCCCCCC(=O)OCC(COC(=O)CCCCCCC/C=C\C/C=C\CCCCC)COC(=O)C1(C)CCN(C)C1 (stereo not drawn) [Example 1, (9Z,9′Z,12Z,12′Z)-2-(((1,3-dimethylpyrrolidine-3-carbonyl)oxy)methyl)propane-1,3-diyl bis(octadeca-9,12-dienoate)] | 119.0 nm | 102.3 nm | 95.7 nm | 126.9 nm | 105.1 nm | 100.0 nm | 107.2 nm | 100.7 nm | 93.0% | 94.7% | 0.152 | 0.049 | 0.136 | 0.090 | 0.182 | 0.105 | 0.145 | 0.100 | 139.1 nm | 133.5 nm | PDI 1st IM [3]: 0.122; PDI 2nd IM [3]: 0.11
